Marks after values point to notes of the source that are not given here.
Experiments:
rats [1] = conditions: rat, in vivo
Description: (§1) A group of each 5 male and female rats was dosed once daily with the indicated compounds (see Table 9, below for compounds, applied doses and administration details) over 28 days.
(§2) Each dose group in the studies consisted of five rats per sex. Additional groups of each 5 male and female animals served as controls. Before starting the treatment period, animals, which were 62-64 days old when supplied, were acclimatized to the housing and environmental conditions for 7 days. All animals of the animal population were kept under the same constant temperature (20-24±3° C.) and the same constant humidity (30-70%). The animals of the animal population were fed ad libitum. The food to be used was essentially free of chemical or microbial contaminants. Drinking water was also offered ad libitum. […] The illumination period was 12 hours light followed by 12 hours darkness (12 hours light, from 6:00 to 18:00, and 12 hours darkness, from 18:00 to 6:00). […] The test substances (compounds in Table 9 were dosed and administered as described in the table above.
(§3) In the morning of day 7, 14, and 28, blood was taken from the retroorbital venous plexus from fasted anaesthetized animals. From each animal, 1 ml of blood was collected with EDTA as anticoagulant. The samples were centrifuged for generation of plasma. All plasma samples were covered with a N2 atmosphere and then stored at −80° C. until analysis.
(§4) For mass spectrometry-based metabolite profiling analyses plasma samples were extracted and a polar and a non-polar (lipid) fraction was obtained. For GC-MS analysis, the non-polar fraction was treated with methanol under acidic conditions to yield the fatty acid methyl esters. Both fractions were further derivatised with O-methyl-hydroxyamine hydrochloride and pyridine to convert Oxo-groups to O-methyloximes and subsequently with a silylating agent before analysis. In LC-MS analysis, both fractions were reconstituted in appropriate solvent mixtures. HPLC was performed by gradient elution on reversed phase separation columns.
(§5) Steroids and their metabolites were measured by online SPE-LC-MS (Solid phase extraction-LC-MS).
(§6) Following comprehensive analytical validation steps, the data for each analyte were normalized against data from pool samples. These samples were run in parallel through the whole process to account for process variability. The significance of treatment group values specific for sex, treatment duration and metabolite was determined by comparing means of the treated groups to the means of the respective untreated control groups using WELCH-test and quantified with treatment ratios versus control and p-values.

rats [2] = assay: 28-day repeated dose study in rats with mass spectrometry-based plasma metabolite profiling (GC-MS, LC-MS, SPE-LC-MS); treatment ratios versus control; conditions: plasma, female rats, day 28, high dose
Description: as §1, §2, §3, §4, §5, §6

NC[C@H]1O[C@H](O[C@H]2[C@H](O)[C@@H](O[C@H]3O[C@H](CO)[C@@H](O)[C@H](N)[C@H]3O)[C@H](N)C[C@@H]2N)[C@H](N)C[C@@H]1O [Tobramycin s.c., Tobramycin]
Leucine, treatment ratio versus control (rats [1]): 1.26 * | Docosahexaenoic acid (C22:cis[4,7,10,13,16,19]6), treatment ratio versus control (rats [2]; Table 5a tubular necrosis): 1.05 * | Docosapentaenoic acid (C22:cis[7,10,13,16,19]5), treatment ratio versus control (rats [2]; Table 5a tubular necrosis): 1.56 * | Eicosanoic acid (C20:0), treatment ratio versus control (rats [2]; Table 5a tubular necrosis): 1.05 | Glycerol, lipid fraction, treatment ratio versus control (rats [2]; Table 5a tubular necrosis): 1.2 * | Phosphate (inorganic and organic phosphates), treatment ratio versus control (rats [2]; Table 5a tubular necrosis): 1.3 * | Hippuric acid, treatment ratio versus control (rats [2]; Table 5b tubular necrosis): 0.14 * | Lactate, treatment ratio versus control (rats [2]; Table 5b tubular necrosis): 0.64 *
